Test results from article PMC7766225, “Structure-Based Discovery and Bioactivity Evaluation of Novel Aurora-A Kinase Inhibitors as Anticancer Agents via Docking-Based Comparative Intermolecular Contacts Analysis (dbCICA)” (Molecules, 2020).
Where two headings read alike, the source gives them in different places.

How the values were obtained:
Aurora-A kinase = molecular target: T1, Aurora-A kinase (Homo sapiens, UniProt O14965); details: Table S1, ChEMBL, et al., cited from earlier work
T1 construct: purchased Invitrogen (Carlsbad, CA, USA)
T1 sequence (O14965 1-403): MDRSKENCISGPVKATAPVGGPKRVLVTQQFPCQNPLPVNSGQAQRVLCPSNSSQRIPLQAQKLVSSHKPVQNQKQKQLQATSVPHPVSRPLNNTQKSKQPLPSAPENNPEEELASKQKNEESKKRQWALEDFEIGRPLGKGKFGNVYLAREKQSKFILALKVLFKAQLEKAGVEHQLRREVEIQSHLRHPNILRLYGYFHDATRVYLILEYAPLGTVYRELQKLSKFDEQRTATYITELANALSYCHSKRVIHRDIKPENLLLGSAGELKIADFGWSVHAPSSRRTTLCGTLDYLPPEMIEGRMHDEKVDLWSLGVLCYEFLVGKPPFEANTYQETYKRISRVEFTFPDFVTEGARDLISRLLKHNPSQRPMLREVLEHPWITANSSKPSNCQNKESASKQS

[1] = tested on: xenograft models of various cancer types; set-up: method as in PMID 19369091, PMID 14981513, PMID 18160664; details: cited from earlier work
PANC1 cells = assay: MTT cytotoxicity/anti-proliferation assay, PANC1; assay type: cell-based, human; details: Homo sapiens
Procedure: (§1) The human cell-lines triple negative breast adenocarcinoma MDA-MB-231, Pancreas adenocarcinoma PANC1, ductal breast carcinoma T-47D and fibroblasts were preserved and expanded in DMEM medium, while the prostate adenocarcinoma PC-3 cells were cultured in RPMI-1640 growth medium. All growth media were supplemented with 10% heat-inactivated fetal bovine serum (FBS). Cells were maintained under standard culture conditions at 37 °C, 5% CO2 in a humidified incubator. At 80% confluency, cells were washed with 5 mL phosphate buffer saline (1X PBS), then incubated for 4 min with 2–3 mL Trypsin-EDTA 0.25% in order to obtain suspended cells and collect them in a known volume of fresh media for cell count. Cells were counted using conventional hemocytometer and trypan blue dye method.
(§2) The five potent hits that have shown anti-Aurora-A Kinase inhibition percentages above 51% at 10 μM upon conducting the kinase enzyme Inhibition assay (Table 5) were further validated using MTT cytotoxicity Assay. This assay includes 3-(4,5-Dimethylthiazol-2-yl)-2,5-diphenyl tetrazolium bromide (MTT) dye, which is a yellowish tetrazole reduced by viable cells into formazan purple color, which detects the normal mitochondrial role in viable cells. In 96-well coated flat bottom microplates, 100 μL cell suspension of PANC1 or T-47D cells were seeded at a density of 7000 cell/well, and 6000 cell/well for MDA-MB-231, PC-3, or fibroblasts, and incubated under the same conditions at 37 °C. After 24 h, each well was treated with the intended drug concentration diluted in 200 μL fresh media after removal of the old 100-μL media. After 72 h incubation, drug-containing media was aspirated and on each well 100 μL phenol-red free media and 15-μL MTT solution (5 mg/mL (wt/vol) PBS). After 3 h of dark incubation at 37 °C, MTT and media were carefully withdrawn from each well, and 200 μL/well DMSO were added. Colorimetric absorbance (OD) was measured at 570 nm wavelength using 96-well plate reader (Tecan-Sunrise, Männedorf, Switzerland).
(§3) The five compounds were prepared in a stock concentrate of 10 mM using cell culture grade DMSO to be utilized in MTT assay. The cytotoxicity of each compound was initially screened on cancer cell-lines at two concentrations: 50 μM and 25 μM in duplicates. […] The safety index for the compounds with specified IC50 values was evaluated via determining their IC50 values against normal Fibroblast cells. It is noteworthy to mention that DMSO concentration was constant on all the wells (i.e., (0.5% v/v or 1 μL/200 μL) per well), for the treated and the control ones. IC50 values were calculated using nonlinear regression of the dose–response curves using GraphPad Prism software 7.03.

T-47D cells = assay: MTT cytotoxicity/anti-proliferation assay, T-47D; assay type: cell-based; details: Homo sapiens, T47D, 72 h
Procedure: as §1, §2, §3

PC-3 cells = assay: MTT cytotoxicity/anti-proliferation assay, PC-3; assay type: cell-based; details: Homo sapiens
Procedure: as §1, §2, §3

Fibroblasts = assay: MTT cytotoxicity assay on normal fibroblasts (safety index); assay type: cell-based; details: Homo sapiens, Fibroblast, 72 h
Procedure: as §1, §2, §3

MDA-MB-231 cells = assay: MTT cytotoxicity/anti-proliferation assay, MDA-MB-231; assay type: cell-based, human; details: for IC50: MDA-MB-231, 72 h
Procedure: as §1, §2, §3

In the case of CCC(=O)Nc1ccc(Sc2nc(Nc3cc(C)[nH]n3)cc(N3CCOCC3)n2)cc1 [Compound 58], the Ki (Aurora-A kinase; ref Bebbington, 2009) is given as 0.0017 µM.

In the case of CCNc1nc(C)c(-c2ccnc(Nc3cc(OC)c(OC)c(OC)c3)n2)s1 [Compound 70], the Ki (Aurora-A kinase; ref Wang, 2010) is given as 0.003 µM.

For Cc1nc(C)c(-c2ccnc(Nc3ccc(N(C)C)cc3)n2)s1 [Compound 65], the Ki (Aurora-A kinase; ref Wang, 2010) is listed as 0.0069 µM.

For Cc1cc(Nc2cc(N3CCN(C)CC3)nc(Sc3ccc(NC(=O)C4CC4)cc3)n2)[nH]n1 [Tozasertib/(VX-680), Tozasertib, reference compound], the “reduced the tumor size” value [1] is given as 22–98%, the IC50 (PANC1 cells; PANC-1, 72 h, Panc1, 72 h) is given as roughly 7.6 µM and the inhibition at 25 µM (PANC1 cells; PANC-1, Panc1, 25 µM, 72 h) is given as 80.9 ± 0.005%. It also gave an inhibition at 50 µM (PANC1 cells; PANC-1, Panc1, 50 µM, 72 h) of 89.3 ± 0.015%, an inhibition at 25 µM (T-47D cells; 25 µM) of 53.4 ± 0.02% and an inhibition at 50 µM (T-47D cells; 50 µM) of 80.9 ± 0.01%. The IC50 (T-47D cells) was 17.9 ± 1.64 µM, the IC50 (PC-3 cells; PC-3, 72 h) was 21.4 ± 1.6 µM and the inhibition at 25 µM (PC-3 cells; PC-3, 25 µM, 72 h) was 49.5 ± 0.006%. The inhibition at 50 µM (PC-3 cells; PC-3, 50 µM, 72 h) was 68.7 ± 0.011%, the inhibition at 25 µM (Fibroblasts; 25 µM) was 85 ± 0.006% and the inhibition at 50 µM (Fibroblasts; 50 µM) was 89 ± 0.005%. For the same compound, the IC50 (Fibroblasts) was 9.2 ± 0.6 µM, the IC50 (MDA-MB-231 cells; Homo sapiens) was roughly 7.6 µM and the inhibition at 25 µM (MDA-MB-231 cells; Homo sapiens, MDA-MB-231, 25 µM, 72 h) was 81 ± 0.008%. For the same compound, the inhibition at 50 µM (MDA-MB-231 cells; Homo sapiens, MDA-MB-231, 50 µM, 72 h) was 87 ± 0.007% and the IC50 (MDA-MB-231 cells) was 7.7 ± 0.65 µM.

For CCC(=O)Nc1ccc(Sc2nc(Nc3cc(C)[nH]n3)cc(N3CCN(C(C)(C)C)CC3)n2)cc1 [Compound 61], the Ki (Aurora-A kinase; ref Bebbington, 2009) is given as 0.0013 µM.

In the case of CCC(=O)Nc1ccc(Sc2nc(Nc3cc(C)[nH]n3)cc(N3CCCCC3)n2)cc1 [Compound 57], the Ki (Aurora-A kinase; ref Bebbington, 2009) is given as 0.0016 µM.

In the case of CC(=O)Nc1ccc(Sc2nccc(Nc3cc(C)[nH]n3)n2)cc1 [Compound 49], the Ki (Aurora-A kinase; ref Bebbington, 2009) is given as 0.086 µM.
